Data as given in ChEMBL document CHEMBL5370603, “N-(2-Aminophenyl)-benzamide Inhibitors of Class I HDAC Enzymes with Antiproliferative and Antifibrotic Activity” (J Med Chem, 2023).
Active and inactive are the calls of the source. The calls are words filed in the database; no cut-off is given here.

Experiments:
Histone deacetylase 1 [1] = biological target: T1, Histone deacetylase 1 (Homo sapiens, UniProt Q13547); assay: Inhibition of human recombinant HDAC1 using Ac-Leu-Gly-Lys(Ac)-AMC as substrate preincubated with enzyme for 30 mins followed by substrate addition and measured after 90 mins by fluorescence based analysis
[2] = biological target: T2, Protein deacetylase HDAC6 (Homo sapiens, UniProt Q9UBN7); assay: Inhibition of C-terminal FLAG-tagged human recombinant full length HDAC6 expressed in baculovirus expression system using Boc-Lys(Ac)-AMC as substrate preincubated with enzyme for 15 mins followed by substrate addition and measured after 60 mins by fluorescence based analysis
T2 sequence (Q9UBN7 whole entry): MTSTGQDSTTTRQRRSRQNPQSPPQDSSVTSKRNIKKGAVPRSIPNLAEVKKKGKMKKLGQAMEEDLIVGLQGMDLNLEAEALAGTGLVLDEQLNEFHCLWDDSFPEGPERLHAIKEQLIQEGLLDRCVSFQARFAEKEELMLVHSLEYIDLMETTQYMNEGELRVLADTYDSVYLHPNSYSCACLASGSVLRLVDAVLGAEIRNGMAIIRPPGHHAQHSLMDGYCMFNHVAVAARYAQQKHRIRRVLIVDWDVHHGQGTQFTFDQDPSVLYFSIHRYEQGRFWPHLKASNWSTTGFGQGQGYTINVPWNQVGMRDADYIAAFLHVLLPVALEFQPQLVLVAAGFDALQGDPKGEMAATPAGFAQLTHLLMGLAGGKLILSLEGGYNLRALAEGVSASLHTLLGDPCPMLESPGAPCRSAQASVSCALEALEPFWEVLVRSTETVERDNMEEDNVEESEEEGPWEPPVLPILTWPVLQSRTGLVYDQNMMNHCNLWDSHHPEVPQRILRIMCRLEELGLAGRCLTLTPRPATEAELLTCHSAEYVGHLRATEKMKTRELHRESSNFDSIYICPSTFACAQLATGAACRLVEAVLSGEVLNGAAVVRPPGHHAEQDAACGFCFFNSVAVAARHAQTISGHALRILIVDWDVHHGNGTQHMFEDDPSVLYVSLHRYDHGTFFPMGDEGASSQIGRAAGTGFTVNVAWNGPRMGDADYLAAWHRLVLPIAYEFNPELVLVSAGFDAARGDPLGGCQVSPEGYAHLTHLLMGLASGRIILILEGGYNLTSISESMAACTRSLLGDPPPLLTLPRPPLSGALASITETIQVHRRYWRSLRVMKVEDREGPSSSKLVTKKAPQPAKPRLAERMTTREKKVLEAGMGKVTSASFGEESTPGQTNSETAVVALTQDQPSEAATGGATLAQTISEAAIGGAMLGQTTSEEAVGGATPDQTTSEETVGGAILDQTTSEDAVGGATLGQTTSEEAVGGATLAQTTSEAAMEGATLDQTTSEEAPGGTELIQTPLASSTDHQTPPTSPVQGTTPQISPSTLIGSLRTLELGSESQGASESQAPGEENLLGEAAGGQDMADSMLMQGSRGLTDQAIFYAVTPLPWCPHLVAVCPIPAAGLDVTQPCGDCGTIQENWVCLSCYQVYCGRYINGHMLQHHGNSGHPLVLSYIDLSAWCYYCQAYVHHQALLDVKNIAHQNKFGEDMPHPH

A549 = assay: Antiproliferative activity against human A549 cells assessed as inhibition of cell growth incubated for 72 hrs by MTT assay; format: functional, cell-based; settings: A549, 72 h
SF-268 = assay: Antiproliferative activity against human SF-268 cells assessed as inhibition of cell growth incubated for 72 hrs by MTT assay; format: functional, cell-based; settings: SF-268, 72 h
Histone deacetylase 2 = Histone deacetylase 2 (Homo sapiens, UniProt Q92769); assay: Inhibition of human recombinant HDAC2 using Ac-Leu-Gly-Lys(Ac)-AMC as substrate preincubated with enzyme for 30 mins followed by substrate addition and measured after 90 mins by fluorescence based analysis
Caco-2 = assay: Antiproliferative activity against human Caco-2 cells assessed as inhibition of cell growth incubated for 72 hrs by MTT assay; format: functional, cell-based; settings: Caco-2, 72 h
Histone deacetylase 3 = Histone deacetylase 3 (Homo sapiens, UniProt O15379); assay: Inhibition of human recombinant HDAC3 using Ac-Leu-Gly-Lys(Ac)-AMC as substrate preincubated with enzyme for 30 mins followed by substrate addition and measured after 90 mins by fluorescence based analysis
Histone deacetylase 8 = biological target: T3, Histone deacetylase 8 (Homo sapiens, UniProt Q9BY41); assay: Inhibition of C-terminal His-tagged human recombinant full length HDAC8 (1 to 377 residues) expressed in Sf9 cells using Ac-Leu-Gly-Lys(trifluoroAc)-AMC as substrate preincubated with enzyme for 30 mins followed by substrate addition and measured after 90 mins by fluorescence based analysis
T3 sequence (Q9BY41 whole entry): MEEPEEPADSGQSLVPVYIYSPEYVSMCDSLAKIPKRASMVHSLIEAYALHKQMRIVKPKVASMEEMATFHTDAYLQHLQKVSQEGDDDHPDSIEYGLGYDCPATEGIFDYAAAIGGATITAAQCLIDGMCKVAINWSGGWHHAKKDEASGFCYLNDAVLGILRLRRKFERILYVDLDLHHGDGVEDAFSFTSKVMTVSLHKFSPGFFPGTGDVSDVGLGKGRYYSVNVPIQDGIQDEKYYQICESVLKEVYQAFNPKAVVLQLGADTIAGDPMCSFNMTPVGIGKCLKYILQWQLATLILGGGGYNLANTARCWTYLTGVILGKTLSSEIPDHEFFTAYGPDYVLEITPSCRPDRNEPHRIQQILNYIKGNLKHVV

Histone deacetylase 4 = Histone deacetylase 4 (Homo sapiens, UniProt P56524); assay: Inhibition of N-terminal GST-tagged/C-terminal His tagged human recombinant HDAC4 (627 to 1084 residues) expressed in baculovirus-infected Sf9 cells using Ac-Leu-Gly-Lys(trifluoroAc)-AMC as substrate preincubated with enzyme for 15 mins followed by substrate addition and measured after 60 mins by fluorescence based analysis
[3] = biological target: T4, Class 1 histone deacetylase (Homo sapiens) (UniProt Q13547+O15379+Q92769+Q9BY41); assay: Inhibition of class I HDAC in human A549 cells assessed as increase in histone H3 acetylation at 5 uM incubated for 48 hrs by immunoblot analysis; format: cell-based
[4] = biological target: T5, Protein deacetylase HDAC6 (Homo sapiens) (UniProt Q9UBN7); assay: Inhibition of HDAC6 in human A549 cells assessed as increase in acetylated alpha-tubulin level at 5 uM incubated for 48 hrs by immunoblot analysis; format: cell-based
T5 sequence (whole entry): T2 sequence (Q9UBN7 whole entry)

[5] = biological target: T4, Class 1 histone deacetylase (Homo sapiens); assay: Inhibition of class I HDAC in human A549 cells assessed as downregulation of EGFR gene expression at 5 uM incubated for 48 hrs by qRT-PCR analysis; format: cell-based
[6] = biological target: T4, Class 1 histone deacetylase (Homo sapiens); assay: Inhibition of class I HDAC in human A549 cells assessed as downregulation of ERBB2 gene expression at 5 uM incubated for 48 hrs by qRT-PCR analysis; format: cell-based
[7] = biological target: T4, Class 1 histone deacetylase (Homo sapiens); assay: Inhibition of class I HDAC in human A549 cells assessed as downregulation of STAT3 gene expression at 5 uM incubated for 48 hrs by qRT-PCR analysis; format: cell-based
[8] = biological target: T4, Class 1 histone deacetylase (Homo sapiens); assay: Inhibition of class I HDAC in human A549 cells assessed as downregulation of MYC gene expression at 5 uM incubated for 48 hrs by qRT-PCR analysis; format: cell-based
[9] = biological target: T4, Class 1 histone deacetylase (Homo sapiens); assay: Inhibition of class I HDAC in human A549 cells assessed as downregulation of EGFR protein expression at 5 uM incubated for 48 hrs by western blot analysis; format: cell-based
Histone deacetylase 1 [10] = biological target: T1, Histone deacetylase 1; assay: Inhibition of human recombinant HDAC1 using Ac-Leu-Gly-Lys(Ac)-AMC as substrate preincubated with enzyme for 30 mins followed by substrate addition and measured after 90 mins by fluorescence based analysis relative to control; settings: time 120.0 min

Chain of Histone deacetylase 3 (O15379 whole entry, the tested form may be a part): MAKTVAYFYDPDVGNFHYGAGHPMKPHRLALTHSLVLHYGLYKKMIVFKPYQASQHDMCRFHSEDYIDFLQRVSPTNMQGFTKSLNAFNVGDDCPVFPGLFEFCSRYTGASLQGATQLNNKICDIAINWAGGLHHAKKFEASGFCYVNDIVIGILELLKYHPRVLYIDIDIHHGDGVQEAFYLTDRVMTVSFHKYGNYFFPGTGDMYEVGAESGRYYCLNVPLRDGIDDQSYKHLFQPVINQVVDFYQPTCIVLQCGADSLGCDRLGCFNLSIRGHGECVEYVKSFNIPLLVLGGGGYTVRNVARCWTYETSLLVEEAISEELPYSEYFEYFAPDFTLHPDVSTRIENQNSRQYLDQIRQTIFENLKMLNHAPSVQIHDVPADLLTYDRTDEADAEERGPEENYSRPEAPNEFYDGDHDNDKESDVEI
Chain of Histone deacetylase 4 (P56524 whole entry, the tested form may be a part): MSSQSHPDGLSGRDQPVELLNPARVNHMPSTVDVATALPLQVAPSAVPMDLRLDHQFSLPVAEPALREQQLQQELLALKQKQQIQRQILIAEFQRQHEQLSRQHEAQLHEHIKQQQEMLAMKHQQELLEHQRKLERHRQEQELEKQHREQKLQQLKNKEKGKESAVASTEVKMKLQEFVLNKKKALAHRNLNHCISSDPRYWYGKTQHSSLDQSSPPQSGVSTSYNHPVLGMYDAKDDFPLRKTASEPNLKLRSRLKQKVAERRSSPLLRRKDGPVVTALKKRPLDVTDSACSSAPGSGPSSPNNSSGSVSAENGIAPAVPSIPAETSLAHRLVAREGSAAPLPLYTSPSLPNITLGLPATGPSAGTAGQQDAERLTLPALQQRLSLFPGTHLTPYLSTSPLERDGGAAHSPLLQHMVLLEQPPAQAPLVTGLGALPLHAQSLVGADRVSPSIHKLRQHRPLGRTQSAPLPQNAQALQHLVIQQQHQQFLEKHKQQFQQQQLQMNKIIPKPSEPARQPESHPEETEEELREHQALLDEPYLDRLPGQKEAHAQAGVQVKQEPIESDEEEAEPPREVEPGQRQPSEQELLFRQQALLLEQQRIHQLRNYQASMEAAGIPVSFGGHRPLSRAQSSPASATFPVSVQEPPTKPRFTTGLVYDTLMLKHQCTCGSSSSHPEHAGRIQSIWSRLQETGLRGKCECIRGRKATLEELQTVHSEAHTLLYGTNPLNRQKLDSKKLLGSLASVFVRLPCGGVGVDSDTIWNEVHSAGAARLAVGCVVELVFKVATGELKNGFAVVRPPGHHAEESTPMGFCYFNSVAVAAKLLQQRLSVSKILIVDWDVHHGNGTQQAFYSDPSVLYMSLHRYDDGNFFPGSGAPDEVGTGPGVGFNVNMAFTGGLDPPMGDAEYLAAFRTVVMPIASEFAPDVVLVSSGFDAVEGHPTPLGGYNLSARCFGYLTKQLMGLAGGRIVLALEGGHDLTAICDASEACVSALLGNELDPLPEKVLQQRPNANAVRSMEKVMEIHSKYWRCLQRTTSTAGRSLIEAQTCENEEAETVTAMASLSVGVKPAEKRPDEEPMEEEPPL
T1 sequence (Q13547 whole entry): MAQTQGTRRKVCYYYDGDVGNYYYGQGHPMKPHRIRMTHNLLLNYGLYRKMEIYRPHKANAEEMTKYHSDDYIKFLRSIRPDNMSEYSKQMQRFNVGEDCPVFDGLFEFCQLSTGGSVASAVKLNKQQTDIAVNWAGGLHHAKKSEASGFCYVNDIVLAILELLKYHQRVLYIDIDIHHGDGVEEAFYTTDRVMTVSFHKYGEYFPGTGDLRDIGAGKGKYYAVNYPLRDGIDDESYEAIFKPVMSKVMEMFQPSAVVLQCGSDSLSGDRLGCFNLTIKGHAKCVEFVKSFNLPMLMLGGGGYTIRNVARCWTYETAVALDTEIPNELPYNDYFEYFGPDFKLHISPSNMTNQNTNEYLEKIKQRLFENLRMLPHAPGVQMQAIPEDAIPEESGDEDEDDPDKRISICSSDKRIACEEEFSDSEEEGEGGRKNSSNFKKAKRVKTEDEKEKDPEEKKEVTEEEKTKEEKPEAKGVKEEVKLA
Chain of Histone deacetylase 2 (Q92769 whole entry): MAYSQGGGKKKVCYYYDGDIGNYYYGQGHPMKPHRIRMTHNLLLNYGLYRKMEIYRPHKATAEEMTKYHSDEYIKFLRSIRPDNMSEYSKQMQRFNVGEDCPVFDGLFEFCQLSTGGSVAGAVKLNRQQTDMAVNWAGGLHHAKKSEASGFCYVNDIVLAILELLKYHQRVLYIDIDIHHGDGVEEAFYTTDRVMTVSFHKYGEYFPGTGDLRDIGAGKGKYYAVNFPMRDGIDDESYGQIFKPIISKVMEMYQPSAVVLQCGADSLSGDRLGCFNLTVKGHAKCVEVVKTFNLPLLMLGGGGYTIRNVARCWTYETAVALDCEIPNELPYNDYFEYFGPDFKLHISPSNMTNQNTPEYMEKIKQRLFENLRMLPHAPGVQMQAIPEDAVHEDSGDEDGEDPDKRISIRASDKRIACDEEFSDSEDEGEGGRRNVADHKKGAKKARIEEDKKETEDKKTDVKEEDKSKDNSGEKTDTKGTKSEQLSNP

Compound | IC50 (Histone deacetylase 1 [1]) [µM] | IC50 [2] [µM] | IC50 (A549) [µM] | IC50 (Histone deacetylase 2) [µM] | IC50 (SF-268) [µM] | other results
O=C(NCc1ccccc1)c1ccc(COc2ccc(CNC(=O)[C@@H]3CCC(=O)N3Cc3ccccc3)cc2)cc1 | > 10 | > 10 | > 25 |  | > 25 | 
CC(C)(C)OC(=O)NCc1ccc(OCc2ccc(C(=O)Nc3ccccc3N)cc2)cc1 | 1.71 | > 10 | 14.6 |  | 8.6 | 
Nc1ccccc1NC(=O)c1ccc(COc2ccc(CNC(=O)[C@@H]3CCCN3C(=O)c3ccccc3)cc2)cc1 | 0.216 | > 10 | 16 |  | 9.2 | 
Nc1ccccc1NC(=O)c1ccc(COc2ccc(CNC(=O)[C@H]3CCCN3Cc3ccccc3)cc2)cc1 | 0.093 | > 100 | 4.7 | 0.083 | 3.1 | 
Nc1ccccc1NC(=O)c1ccc(COc2ccc(CNC(=O)c3ccccn3)cc2)cc1 | 0.2 | > 10 | 6.8 |  | 9.8 | 
Nc1ccccc1NC(=O)c1ccc(COc2ccc(CNC(=O)c3cc4ccccc4[nH]3)cc2)cc1 | 0.182 | > 10 | 5.2 |  | 16.5 | 
NCc1ccc(OCc2ccc(C(=O)Nc3ccccc3N)cc2)cc1 | 0.1 | > 10 | > 25 |  | 8.5 | IC50 (Histone deacetylase 3): 0.052 µM; IC50 (Histone deacetylase 8): > 10 µM; IC50 (Histone deacetylase 4): > 100 µM
Nc1ccccc1NC(=O)c1ccc(COc2ccc(CNC(=O)[C@@H]3CCCN3Cc3ccc(F)cc3)cc2)cc1 | 0.13 | > 100 | 5.1 | 0.196 | 4.8 | 
Nc1ccccc1NC(=O)c1ccc(COc2ccc(CNC(=O)[C@@H]3CCCN3)cc2)cc1 | 0.055 | > 100 | 10 | 0.072 | 3.3 | IC50 (Histone deacetylase 3): 0.061 µM; IC50 (Histone deacetylase 8): > 10 µM; IC50 (Histone deacetylase 4): > 100 µM
O=C(O)c1ccc(COc2ccc(CNC(=O)[C@@H]3CCCN3Cc3ccccc3)cc2)cc1 | > 10 | > 10 | > 25 |  | > 25 | 
Nc1ccccc1NC(=O)c1ccc(COc2ccc(CNC(=O)[C@@H]3CCCN3C(=O)OCc3ccccc3)cc2)cc1 | 0.202 | > 10 | > 25 |  | 12.7 | 
Nc1ccccc1NC(=O)c1ccc(COc2ccc(CNC(=O)C3CCCO3)cc2)cc1 (stereo not given) | 0.111 | > 10 | > 25 |  | > 25 | inhibition (Histone deacetylase 1 [10]): 75%
Nc1ccccc1NC(=O)c1ccc(COc2ccc(CN3C(=O)CC[C@H]3CC(=O)NCc3ccccc3)cc2)cc1 | 0.084 | > 100 | 15 | 0.217 | 7.1 | 
Nc1ccccc1NC(=O)c1ccc(COc2ccc(CNC(=O)[C@@H]3CCCN3Cc3ccccc3)cc2)cc1 | 0.113 | > 100 | 3.7 | 0.192 | 3.4 | IC50 (Histone deacetylase 3): 0.387 µM; IC50 (Histone deacetylase 8): > 10 µM; IC50 (Histone deacetylase 4): > 100 µM; IC50 (Caco-2): 1.9 µM; inhibition [3]: Active; inhibition [4]: inactive; inhibition [5]: Active; inhibition [6]: inactive; inhibition [7]: inactive; inhibition [8]: inactive; inhibition [9]: Active
Nc1ccccc1NC(=O)c1ccc(COc2ccc(NC(=O)[C@@H]3CCC(=O)N3Cc3ccccc3)cc2)cc1 | 0.43 | > 10 | > 25 |  | > 25 | inhibition (Histone deacetylase 1 [10]): 75%

Now from value to molecule, other results behind:

IC50 (Histone deacetylase 1 [1]) [µM] | IC50 [2] [µM] | IC50 (A549) [µM] | IC50 (Histone deacetylase 2) [µM] | Compound | IC50 (SF-268) [µM] | other results
0.216 | > 100 | 6.9 | 0.348 | Nc1ccccc1NC(=O)c1ccc(COc2ccc(CNC(=O)[C@@H]3CCC(=O)N3Cc3ccc(F)cc3)cc2)cc1 | 6.5 | IC50 (Caco-2): 1.9 µM
0.092 | > 100 | 3.9 | 0.143 | Nc1ccccc1NC(=O)c1ccc(COc2ccc(CNC(=O)[C@H]3CCC(=O)N3Cc3ccccc3)cc2)cc1 | 3.4 | IC50 (Histone deacetylase 3): 0.431 µM; IC50 (Histone deacetylase 8): > 10 µM; IC50 (Histone deacetylase 4): > 100 µM; IC50 (Caco-2): 1.9 µM; inhibition [3]: Active; inhibition [4]: inactive; inhibition [5]: Active; inhibition [6]: inactive; inhibition [7]: inactive; inhibition [8]: inactive; inhibition [9]: Active
> 10 | > 10 | > 25 |  | O=C(O)c1ccc(COc2ccc(CNC(=O)[C@@H]3CCC(=O)N3Cc3ccc(Br)cc3)cc2)cc1 | > 25 | 
1.98 | 0.143 | > 25 |  | O=C(NO)c1ccc(COc2ccc(CNC(=O)[C@@H]3CCC(=O)N3Cc3ccccc3)cc2)cc1 |  | 
> 10 | > 10 | > 25 |  | O=C(NCc1ccc(OCc2ccc(B(O)O)cc2)cc1)[C@@H]1CCC(=O)N1Cc1ccccc1 | > 25 | 
> 10 | > 10 | > 25 |  | O=C(Nc1ccccc1)c1ccc(COc2ccc(CNC(=O)[C@@H]3CCC(=O)N3Cc3ccccc3)cc2)cc1 | > 25 | 
> 10 | > 10 | > 25 |  | O=C(O)c1ccc(COc2ccc(CNC(=O)[C@@H]3CCC(=O)N3Cc3ccccc3)cc2)cc1 | > 25 | 
0.051 | > 100 | 9.2 | 0.082 | Nc1ccccc1NC(=O)c1ccc(COc2ccc(CNC(=O)[C@@H]3CCC(=O)N3Cc3ccc(Br)cc3)cc2)cc1 | 6.6 | 
